According to ChEMBL document CHEMBL5120927, “LEGO-Lipophosphonoxins: A Novel Approach in Designing Membrane Targeting Antimicrobials” (J Med Chem, 2022):

system: Enterococcus faecalis; assay: Antibacterial activity against Enterococcus faecalis ATCC 29212 = CCM 4224 assessed as inhibition of bacterial growth incubated for 24 hrs by microdilution assay; assay type: functional; details: not given

SMILES	MIC
CCCCCCCCOP(=O)(CCN(CCN)CCN)OCCCCCCOP(=O)(CCN(CCN)CCN)OCCCCCCCC.Cl.Cl.Cl.Cl.Cl.Cl (stereo unspecified)	1 µg/mL
Cl.Cl.Cl.Cl.Cl.Cl.NCCCN(CCCN)CCP(=O)(OCCCCCOP(=O)(CCN(CCCN)CCCN)OCC12CC3CC(CC(C3)C1)C2)OCC12CC3CC(CC(C3)C1)C2 (stereo unspecified)	4 µg/mL
CCCCCCCOP(=O)(CCN(CCCN)CCCN)OCCCCCCCOP(=O)(CCN(CCCN)CCCN)OCCCCCCC.Cl.Cl.Cl.Cl.Cl.Cl (stereo unspecified)	4 µg/mL
CCC/C=C\CCOP(=O)(CCN(CCCN)CCCN)OCCCOP(=O)(CCN(CCCN)CCCN)OCC/C=C\CCC.Cl.Cl.Cl.Cl.Cl.Cl (stereo unspecified)	> 128 µg/mL

system: Staphylococcus aureus; assay: Antibacterial activity against Staphylococcus aureus ATCC 29213 = CCM 4223 assessed as inhibition of bacterial growth incubated for 24 hrs by microdilution assay; assay type: functional; details: not given

SMILES	MIC
CCCCCCCCOP(=O)(CCN(CCN)CCN)OCCCCCCOP(=O)(CCN(CCN)CCN)OCCCCCCCC.Cl.Cl.Cl.Cl.Cl.Cl (stereo unspecified)	0.5 µg/mL
Cl.Cl.Cl.Cl.Cl.Cl.NCCCN(CCCN)CCP(=O)(OCCCCCOP(=O)(CCN(CCCN)CCCN)OCC12CC3CC(CC(C3)C1)C2)OCC12CC3CC(CC(C3)C1)C2 (stereo unspecified)	2 µg/mL
CCCCCCCOP(=O)(CCN(CCCN)CCCN)OCCCCCCCOP(=O)(CCN(CCCN)CCCN)OCCCCCCC.Cl.Cl.Cl.Cl.Cl.Cl (stereo unspecified)	1 µg/mL
CCC/C=C\CCOP(=O)(CCN(CCCN)CCCN)OCCCOP(=O)(CCN(CCCN)CCCN)OCC/C=C\CCC.Cl.Cl.Cl.Cl.Cl.Cl (stereo unspecified)	64 µg/mL

system: Staphylococcus aureus; assay: Antibacterial activity against Staphylococcus aureus ATCC 29213 = CCM 4223 assessed as inhibition of bacterial growth incubated for 24 hrs in presence of BSA by microdilution assay; assay type: functional; details: not given

SMILES	MIC
CCCCCCCCOP(=O)(CCN(CCN)CCN)OCCCCCCOP(=O)(CCN(CCN)CCN)OCCCCCCCC.Cl.Cl.Cl.Cl.Cl.Cl (stereo unspecified)	5 µg/mL
Cl.Cl.Cl.Cl.Cl.Cl.NCCCN(CCCN)CCP(=O)(OCCCCCOP(=O)(CCN(CCCN)CCCN)OCC12CC3CC(CC(C3)C1)C2)OCC12CC3CC(CC(C3)C1)C2 (stereo unspecified)	2 µg/mL
CCCCCCCOP(=O)(CCN(CCCN)CCCN)OCCCCCCCOP(=O)(CCN(CCCN)CCCN)OCCCCCCC.Cl.Cl.Cl.Cl.Cl.Cl (stereo unspecified)	1 µg/mL
CCC/C=C\CCOP(=O)(CCN(CCCN)CCCN)OCCCOP(=O)(CCN(CCCN)CCCN)OCC/C=C\CCC.Cl.Cl.Cl.Cl.Cl.Cl (stereo unspecified)	64 µg/mL

system: Escherichia coli; assay: Antibacterial activity against Escherichia coli ATCC 25922 = CCM 3954 assessed as inhibition of bacterial growth incubated for 24 hrs by microdilution assay; assay type: functional; details: not given

SMILES	MIC
CCCCCCCCOP(=O)(CCN(CCN)CCN)OCCCCCCOP(=O)(CCN(CCN)CCN)OCCCCCCCC.Cl.Cl.Cl.Cl.Cl.Cl (stereo unspecified)	1 µg/mL
Cl.Cl.Cl.Cl.Cl.Cl.NCCCN(CCCN)CCP(=O)(OCCCCCOP(=O)(CCN(CCCN)CCCN)OCC12CC3CC(CC(C3)C1)C2)OCC12CC3CC(CC(C3)C1)C2 (stereo unspecified)	2 µg/mL
CCCCCCCOP(=O)(CCN(CCCN)CCCN)OCCCCCCCOP(=O)(CCN(CCCN)CCCN)OCCCCCCC.Cl.Cl.Cl.Cl.Cl.Cl (stereo unspecified)	8 µg/mL
CCC/C=C\CCOP(=O)(CCN(CCCN)CCCN)OCCCOP(=O)(CCN(CCCN)CCCN)OCC/C=C\CCC.Cl.Cl.Cl.Cl.Cl.Cl (stereo unspecified)	> 128 µg/mL

system: Escherichia coli; assay: Antibacterial activity against Escherichia coli ATCC 25922 = CCM 3954 assessed as inhibition of bacterial growth incubated for 24 hrs in presence of BSA by microdilution assay; assay type: functional; details: not given

SMILES	MIC
CCCCCCCCOP(=O)(CCN(CCN)CCN)OCCCCCCOP(=O)(CCN(CCN)CCN)OCCCCCCCC.Cl.Cl.Cl.Cl.Cl.Cl (stereo unspecified)	1 µg/mL
Cl.Cl.Cl.Cl.Cl.Cl.NCCCN(CCCN)CCP(=O)(OCCCCCOP(=O)(CCN(CCCN)CCCN)OCC12CC3CC(CC(C3)C1)C2)OCC12CC3CC(CC(C3)C1)C2 (stereo unspecified)	2 µg/mL
CCCCCCCOP(=O)(CCN(CCCN)CCCN)OCCCCCCCOP(=O)(CCN(CCCN)CCCN)OCCCCCCC.Cl.Cl.Cl.Cl.Cl.Cl (stereo unspecified)	1 µg/mL
CCC/C=C\CCOP(=O)(CCN(CCCN)CCCN)OCCCOP(=O)(CCN(CCCN)CCCN)OCC/C=C\CCC.Cl.Cl.Cl.Cl.Cl.Cl (stereo unspecified)	> 128 µg/mL

system: Pseudomonas aeruginosa; assay: Antibacterial activity against Pseudomonas aeruginosa ATCC 27853 = CCM 3955 assessed as inhibition of bacterial growth incubated for 24 hrs by microdilution assay; assay type: functional; details: not given

SMILES	MIC
CCCCCCCCOP(=O)(CCN(CCN)CCN)OCCCCCCOP(=O)(CCN(CCN)CCN)OCCCCCCCC.Cl.Cl.Cl.Cl.Cl.Cl (stereo unspecified)	2 µg/mL
Cl.Cl.Cl.Cl.Cl.Cl.NCCCN(CCCN)CCP(=O)(OCCCCCOP(=O)(CCN(CCCN)CCCN)OCC12CC3CC(CC(C3)C1)C2)OCC12CC3CC(CC(C3)C1)C2 (stereo unspecified)	32 µg/mL
CCCCCCCOP(=O)(CCN(CCCN)CCCN)OCCCCCCCOP(=O)(CCN(CCCN)CCCN)OCCCCCCC.Cl.Cl.Cl.Cl.Cl.Cl (stereo unspecified)	16 µg/mL
CCC/C=C\CCOP(=O)(CCN(CCCN)CCCN)OCCCOP(=O)(CCN(CCCN)CCCN)OCC/C=C\CCC.Cl.Cl.Cl.Cl.Cl.Cl (stereo unspecified)	128 µg/mL

system: not listed separately; assay: Hemolytic activity in human RBC assessed as haemoglobin release measured after 3 hr; assay type: toxicity, cell-based, Erythrocyte; details: red blood cells (erythrocytes)

SMILES	HC50 at 3 h
CCCCCCCCOP(=O)(CCN(CCN)CCN)OCCCCCCOP(=O)(CCN(CCN)CCN)OCCCCCCCC.Cl.Cl.Cl.Cl.Cl.Cl (stereo unspecified)	79 µg/mL
Cl.Cl.Cl.Cl.Cl.Cl.NCCCN(CCCN)CCP(=O)(OCCCCCOP(=O)(CCN(CCCN)CCCN)OCC12CC3CC(CC(C3)C1)C2)OCC12CC3CC(CC(C3)C1)C2 (stereo unspecified)	415 µg/mL
CCCCCCCOP(=O)(CCN(CCCN)CCCN)OCCCCCCCOP(=O)(CCN(CCCN)CCCN)OCCCCCCC.Cl.Cl.Cl.Cl.Cl.Cl (stereo unspecified)	287 µg/mL
CCC/C=C\CCOP(=O)(CCN(CCCN)CCCN)OCCCOP(=O)(CCN(CCCN)CCCN)OCC/C=C\CCC.Cl.Cl.Cl.Cl.Cl.Cl (stereo unspecified)	> 200 µg/mL

system: not listed separately; assay: Gradient chromatographic hydrophobicity index of the compound at pH 3.7 by HPLC analysis; assay type: ADME; details: not given

SMILES	CHI
CCCCCCCCOP(=O)(CCN(CCN)CCN)OCCCCCCOP(=O)(CCN(CCN)CCN)OCCCCCCCC.Cl.Cl.Cl.Cl.Cl.Cl (stereo unspecified)	43.2
Cl.Cl.Cl.Cl.Cl.Cl.NCCCN(CCCN)CCP(=O)(OCCCCCOP(=O)(CCN(CCCN)CCCN)OCC12CC3CC(CC(C3)C1)C2)OCC12CC3CC(CC(C3)C1)C2 (stereo unspecified)	34.1
CCCCCCCOP(=O)(CCN(CCCN)CCCN)OCCCCCCCOP(=O)(CCN(CCCN)CCCN)OCCCCCCC.Cl.Cl.Cl.Cl.Cl.Cl (stereo unspecified)	33.9
CCC/C=C\CCOP(=O)(CCN(CCCN)CCCN)OCCCOP(=O)(CCN(CCCN)CCCN)OCC/C=C\CCC.Cl.Cl.Cl.Cl.Cl.Cl (stereo unspecified)	23.4

system: Staphylococcus epidermidis; assay: Antibacterial activity against Staphylococcus epidermidis CCM 7221 assessed as inhibition of bacterial growth incubated for 24 hrs by microdilution assay; assay type: functional; details: not given

SMILES	MIC
CCCCCCCCOP(=O)(CCN(CCN)CCN)OCCCCCCOP(=O)(CCN(CCN)CCN)OCCCCCCCC.Cl.Cl.Cl.Cl.Cl.Cl (stereo unspecified)	0.5 µg/mL
Cl.Cl.Cl.Cl.Cl.Cl.NCCCN(CCCN)CCP(=O)(OCCCCCOP(=O)(CCN(CCCN)CCCN)OCC12CC3CC(CC(C3)C1)C2)OCC12CC3CC(CC(C3)C1)C2 (stereo unspecified)	2 µg/mL
CCCCCCCOP(=O)(CCN(CCCN)CCCN)OCCCCCCCOP(=O)(CCN(CCCN)CCCN)OCCCCCCC.Cl.Cl.Cl.Cl.Cl.Cl (stereo unspecified)	0.5 µg/mL
CCC/C=C\CCOP(=O)(CCN(CCCN)CCCN)OCCCOP(=O)(CCN(CCCN)CCCN)OCC/C=C\CCC.Cl.Cl.Cl.Cl.Cl.Cl (stereo unspecified)	8 µg/mL

system: Staphylococcus aureus; assay: Antibacterial activity against methicillin resistant Staphylococcus aureus 4591/A assessed as reduction in microbial growth incubated for 24 hrs by microdilution assay; assay type: functional; details: not given

SMILES	MIC
CCCCCCCCOP(=O)(CCN(CCN)CCN)OCCCCCCOP(=O)(CCN(CCN)CCN)OCCCCCCCC.Cl.Cl.Cl.Cl.Cl.Cl (stereo unspecified)	0.5 µg/mL
Cl.Cl.Cl.Cl.Cl.Cl.NCCCN(CCCN)CCP(=O)(OCCCCCOP(=O)(CCN(CCCN)CCCN)OCC12CC3CC(CC(C3)C1)C2)OCC12CC3CC(CC(C3)C1)C2 (stereo unspecified)	2 µg/mL
CCCCCCCOP(=O)(CCN(CCCN)CCCN)OCCCCCCCOP(=O)(CCN(CCCN)CCCN)OCCCCCCC.Cl.Cl.Cl.Cl.Cl.Cl (stereo unspecified)	1 µg/mL
CCC/C=C\CCOP(=O)(CCN(CCCN)CCCN)OCCCOP(=O)(CCN(CCCN)CCCN)OCC/C=C\CCC.Cl.Cl.Cl.Cl.Cl.Cl (stereo unspecified)	32 µg/mL

system: Escherichia coli; assay: Antibacterial activity against multidrug-resistant Escherichia coli CE5556 expressing CTX-M-15 assessed as reduction in microbial growth incubated for 24 hrs by microdilution assay; assay type: functional; details: not given

SMILES	MIC
CCCCCCCCOP(=O)(CCN(CCN)CCN)OCCCCCCOP(=O)(CCN(CCN)CCN)OCCCCCCCC.Cl.Cl.Cl.Cl.Cl.Cl (stereo unspecified)	1 µg/mL
Cl.Cl.Cl.Cl.Cl.Cl.NCCCN(CCCN)CCP(=O)(OCCCCCOP(=O)(CCN(CCCN)CCCN)OCC12CC3CC(CC(C3)C1)C2)OCC12CC3CC(CC(C3)C1)C2 (stereo unspecified)	4 µg/mL
CCCCCCCOP(=O)(CCN(CCCN)CCCN)OCCCCCCCOP(=O)(CCN(CCCN)CCCN)OCCCCCCC.Cl.Cl.Cl.Cl.Cl.Cl (stereo unspecified)	2 µg/mL
CCC/C=C\CCOP(=O)(CCN(CCCN)CCCN)OCCCOP(=O)(CCN(CCCN)CCCN)OCC/C=C\CCC.Cl.Cl.Cl.Cl.Cl.Cl (stereo unspecified)	> 128 µg/mL

system: Enterococcus faecium; assay: Antibacterial activity against vancomycin resistant Enterococcus faecium 419/ANA assessed as reduction in microbial growth incubated for 24 hrs by microdilution assay; assay type: functional; details: not given

SMILES	MIC
CCCCCCCCOP(=O)(CCN(CCN)CCN)OCCCCCCOP(=O)(CCN(CCN)CCN)OCCCCCCCC.Cl.Cl.Cl.Cl.Cl.Cl (stereo unspecified)	4 µg/mL
Cl.Cl.Cl.Cl.Cl.Cl.NCCCN(CCCN)CCP(=O)(OCCCCCOP(=O)(CCN(CCCN)CCCN)OCC12CC3CC(CC(C3)C1)C2)OCC12CC3CC(CC(C3)C1)C2 (stereo unspecified)	64 µg/mL
CCCCCCCOP(=O)(CCN(CCCN)CCCN)OCCCCCCCOP(=O)(CCN(CCCN)CCCN)OCCCCCCC.Cl.Cl.Cl.Cl.Cl.Cl (stereo unspecified)	64 µg/mL
CCC/C=C\CCOP(=O)(CCN(CCCN)CCCN)OCCCOP(=O)(CCN(CCCN)CCCN)OCC/C=C\CCC.Cl.Cl.Cl.Cl.Cl.Cl (stereo unspecified)	> 128 µg/mL

system: Pseudomonas aeruginosa; assay: Antibacterial activity against multidrug-resistant Pseudomonas aeruginosa assessed as reduction in microbial growth incubated for 24 hrs by microdilution assay; assay type: functional; details: not given

SMILES	MIC
CCCCCCCCOP(=O)(CCN(CCN)CCN)OCCCCCCOP(=O)(CCN(CCN)CCN)OCCCCCCCC.Cl.Cl.Cl.Cl.Cl.Cl (stereo unspecified)	2 µg/mL
Cl.Cl.Cl.Cl.Cl.Cl.NCCCN(CCCN)CCP(=O)(OCCCCCOP(=O)(CCN(CCCN)CCCN)OCC12CC3CC(CC(C3)C1)C2)OCC12CC3CC(CC(C3)C1)C2 (stereo unspecified)	8 µg/mL
CCCCCCCOP(=O)(CCN(CCCN)CCCN)OCCCCCCCOP(=O)(CCN(CCCN)CCCN)OCCCCCCC.Cl.Cl.Cl.Cl.Cl.Cl (stereo unspecified)	8 µg/mL
CCC/C=C\CCOP(=O)(CCN(CCCN)CCCN)OCCCOP(=O)(CCN(CCCN)CCCN)OCC/C=C\CCC.Cl.Cl.Cl.Cl.Cl.Cl (stereo unspecified)	128 µg/mL

system: not listed separately; assay: Cytotoxicity against human HepG2 cells assessed as reduction in cell viability; assay type: toxicity, cell-based; details: not given

SMILES	CC50
CCCCCCCCOP(=O)(CCN(CCN)CCN)OCCCCCCOP(=O)(CCN(CCN)CCN)OCCCCCCCC.Cl.Cl.Cl.Cl.Cl.Cl (stereo unspecified)	80.6 µM
Cl.Cl.Cl.Cl.Cl.Cl.NCCCN(CCCN)CCP(=O)(OCCCCCOP(=O)(CCN(CCCN)CCCN)OCC12CC3CC(CC(C3)C1)C2)OCC12CC3CC(CC(C3)C1)C2 (stereo unspecified)	> 99 µM
CCCCCCCOP(=O)(CCN(CCCN)CCCN)OCCCCCCCOP(=O)(CCN(CCCN)CCCN)OCCCCCCC.Cl.Cl.Cl.Cl.Cl.Cl (stereo unspecified)	89.5 µM
CCC/C=C\CCOP(=O)(CCN(CCCN)CCCN)OCCCOP(=O)(CCN(CCCN)CCCN)OCC/C=C\CCC.Cl.Cl.Cl.Cl.Cl.Cl (stereo unspecified)	> 99 µM
